Reference: patent US7968572B2, “Nitrogen-containing heterocyclic compound and pharmaceutical application thereof” (Ono Pharmaceuticals Co., Ltd., priority 2005, dated 2011)

Experiments:
[1] = molecular target: T1, recombinant human p38α MAP kinase (Homo sapiens, UniProt Q16539); test: Study on p38α MAP kinase inhibitory activity (ATF2 phosphorylation, Alpha Screen); format: biochemical; conditions: biotinylated ATF2 substrate, 30° C. for 30 minutes
T1 construct: purchased Upstate Biotechnology #14-251
Protocol: Study on p38α MAP Kinase Inhibitory Activity
Using activating transcription factor-2 (hereinafter abbreviated to ATF2) which is a substrate for p38α MAP kinase, the inhibitory action of the compounds of the present invention was investigated on the phosphorylation by a recombinant human p38α MAP kinase.
A kinase buffer (25 mM Tris-HCl (pH 7.5), 5 mM β-glycerophosphate, 2 mM dithiothreitol, 0.1 mM Na3VO4, 10 mM MgCl2) containing a recombinant human p38α MAP kinase (Upstate Biotechnology #14-251) was added to a 384-well plate (5 μL) (6.25 ng protein/well) for fluorescence measurement. After addition of a kinase buffer (5 μL) containing the compound of the present invention, the resulting mixture was incubated at room temperature for 20 minutes. A substrate mixture (5 μL) of biotinylated ATF2 of 5 μg/mL (Upstate Biotechnology #14-432), adenosine triphosphate (90 μmol/L) (Sigma #FL-AAS) and anti-phosphorylated ATF2 antibody (20-fold dilution) (Cell Signaling Technology #9221L) prepared separately was added thereto, and enzyme reaction was carried out at 30° C. for 30 minutes. After the reaction, Hepes buffer (5 μL) containing 0.25% BSA and 100 mM EDTA was added to stop the enzyme reaction. The amount of a complex of the phosphorylated ATF2 and anti-phosphorylated ATF2 antibody produced by the reaction was measured using an Alpha Screen™ Rabbit Detection kit (Packard #6760607).
The p38α MAP kinase inhibitory activity, which is the effect of the compound of the present invention, was calculated as an inhibition rate (%) according to the following equation: Inhibition rate (%)={(AC−AX)/(AC−AB)}×100
wherein AB is a measured value without addition of the enzyme;
AC is a measured value with addition of the enzyme in the absence of a test compound; and
AX is a measured value with addition of the enzyme in the presence of a test compound.
Inhibition rate of compounds with each concentration was calculated, and a value indicating 50% inhibition (IC50) was determined from the inhibition curve.

[2] = test system: Chinese hamster lung cells (CHL/IU); test: Phospholipidosis detection system using a fluorescence labeling phospholipid analog (NBD-PE); format: cell-based; conditions: for Pospholipid accumulation increasing ratio (% of 30 uM amiodarone) (Dose of compound: 100 uM): about 24 hours with NBD-PE; for Judgment: phospholipidosis inducing activity, NBD-PE
Protocol: Study by a Phospholipidosis Detection System using a Fluorescence Labeling Phospholipid Analog Cell suspension (7×10^4 cells/ml) of Chinese hamster lung cells (CHL/IU) prepared using MEM (minimum essential medium) was added to a 96 well plate (96 well clear bottom plate) by 100 μL/necessary number of wells (2 wells for 1 dosage) and cultured for about 24 hours. After the culturing and subsequent removal of the supernatants on the 96 well plate, the compounds having respective concentrations prepared by dissolving or suspending in MEM medium containing 25 μmol/L of nitrobenzoxazole dipalmitoyl phosphatidyl ethanolamine (NBD-PE) (hereinafter abbreviated to NBD-PE medium) were added thereto by 100 μL/ well and treated for about 24 hours. Treating concentration of each compound was set to be 6.25, 12.5, 25, 50 or 100 μmol/L. […] In this connection, 5 wells of an untreated control (MEM medium alone) or an NBD-PE control (prepared by adding 1/100 volume of DMSO to the NBD-PE medium) were arranged for each compound and cultured in the same manner. After completion of the culturing and subsequent two times of washing with 100 μL/well of phosphate buffered saline (hereinafter abbreviated to PBS) (−), 100 μL of the MEM medium was added to all of the treated wells including two empty wells for the WST-1 background control and cultured for about 0.5 hour. Fluorescence intensity of each well was measured using a microplate reader (manufactured by Molecular Devices, SPECTRA max M2; excitation wavelength 485 nm/fluorescence wavelength 535 nm). Using average value of 2 wells for each dosage, the phospholipid increasing ratio (%) based on NBD-PE control was calculated using the following formula. Phospholipid accumulation increasing ratio (%)=100×(fluorescence intensity of substance to be tested−fluorescence intensity of untreated control)/(fluorescence intensity of NBD-PE control−fluorescence intensity of untreated control) (iii) Cytotoxicity Test The Pre value was calculated by measuring the 96 well plate which was measured in the measurement of phospholipid accumulation, using the microplate reader (manufactured by Molecular Devices, SPECTRA max M2) at a dominant wavelength of 450 nm and a correction wavelength of 690 nm. Premix WST-1 was added to the pre-measured 96 well plate by 5 μL/well. After 2 to 4 hours of culture, the Aft value was calculated by measuring in the same manner as in the Pre measurement. The background control value was subtracted from each of the measured values. Using the value obtained by subtracting the Pre value from the Aft value, the cell growth ratio (%) was calculated using the following formula.

T1 sequence (Q16539 whole entry): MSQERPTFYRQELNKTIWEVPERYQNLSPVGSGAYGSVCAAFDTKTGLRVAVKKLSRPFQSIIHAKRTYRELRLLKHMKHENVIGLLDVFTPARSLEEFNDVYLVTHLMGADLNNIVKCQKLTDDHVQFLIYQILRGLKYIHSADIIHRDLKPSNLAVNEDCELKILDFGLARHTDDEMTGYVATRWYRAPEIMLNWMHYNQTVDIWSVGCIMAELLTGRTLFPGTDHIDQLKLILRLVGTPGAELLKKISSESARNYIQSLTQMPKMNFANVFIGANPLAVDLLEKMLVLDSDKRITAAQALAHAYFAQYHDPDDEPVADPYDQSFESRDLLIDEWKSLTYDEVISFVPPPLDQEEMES

Row | Structure (SMILES) | IC50 [1] | Pospholipid accumulation increasing ratio (% of 30 uM amiodarone) (Dose of compound: 100 uM) [2] | Judgment [2]
1 | C[C@](O)(CO)c1nc(-c2ccc(=O)n(-c3c(F)cccc3F)c2)c(-c2ccc(F)cc2F)o1 [Example 167 (2), 1-(2,6-difluorophenyl)-5-{5-(2,4-difluorophenyl)-2-[(1S)-1,2-dihydroxy-1-methylethyl]-1,3-oxazol-4-yl}-2(1H)-pyridinone] | 3.8 nM | 18 % of 30 uM amiodarone | Negative
2 | CC(C)(O)[C@H](O)c1nc(-c2ccc(F)cc2F)c(-c2ccc(=O)n(-c3c(F)cccc3F)c2)o1 [Example 206, 1-(2,6-difluorophenyl)-5-{4-(2,4-difluorophenyl)-2-[(1S)-1,2-dihydroxy-2-methylpropyl]-1,3-oxazol-5-yl}-2(1H)-pyridinone] | 3.3 nM | 10 % of 30 uM amiodarone | Negative
3 | CC(C)(O)[C@@H](O)c1nc(-c2ccc(F)cc2F)c(-c2ccc(=O)n(-c3c(F)cccc3F)c2)o1 [Example 207, 1-(2,6-difluorophenyl)-5-{4-(2,4-difluorophenyl)-2-[(1R)-1,2-dihydroxy-2-methylpropyl]-1,3-oxazol-5-yl}-2(1H)-pyridinone] | 3.7 nM | 11 % of 30 uM amiodarone | Negative
4 | CC(C)(O)[C@@H](O)c1nc(-c2ccc(=O)n(-c3c(F)cccc3F)c2)c(-c2ccc(F)cc2F)o1 [Example 227 (1), 1-(2,6-difluorophenyl)-5-{5-(2,4-difluorophenyl)-2-[(1R)-1,2-dihydroxy-2-methylpropyl]-1,3-oxazol-4-yl}-2(1H)-pyridinone] | 4.8 nM | 13 % of 30 uM amiodarone | Negative
5 | CC(C)(O)[C@H](O)c1nc(-c2ccc(=O)n(-c3c(F)cccc3F)c2)c(-c2ccc(F)cc2F)o1 [Example 227, 1-(2,6-difluorophenyl)-5-{5-(2,4-difluorophenyl)-2-[(1S)-1,2-dihydroxy-2-methylpropyl]-1,3-oxazol-4-yl}-2(1H)-pyridinone] | 3.9 nM | 12 % of 30 uM amiodarone | Negative

Continued by falling IC50 [1], values first:

Row | IC50 [1] | Structure (SMILES) | Pospholipid accumulation increasing ratio (% of 30 uM amiodarone) (Dose of compound: 100 uM) [2] | Judgment [2]
6 | 8 nM | CC(C)(O)Cc1nc(-c2ccc(F)cc2F)c(-c2ccc(=O)n(-c3c(F)cccc3F)c2)o1 [Example 220, 1-(2,6-difluorophenyl)-5-[4-(2,4-difluorophenyl)-2-(2-hydroxy-2-methylpropyl)-1,3-oxazol-5-yl]-2(1H)-pyridinone] | 11 % of 30 uM amiodarone | Negative
7 | 5.6 nM | C[C@@](O)(CO)c1nc(-c2ccc(F)cc2F)c(-c2ccc(=O)n(-c3c(F)cccc3F)c2)o1 [Example 211, 1-(2,6-difluorophenyl)-5-{4-(2,4-difluorophenyl)-2-[(1R)-1,2-dihydroxy-1-methylethyl]-1,3-oxazol-5-yl}-2(1H)-pyridinone] | 8 % of 30 uM amiodarone | Negative
8 | 4.4 nM | C[C@@](O)(CO)c1nc(-c2ccc(=O)n(-c3c(F)cccc3F)c2)c(-c2ccc(F)cc2F)o1 [Example 167 (1), 1-(2,6-difluorophenyl)-5-{5-(2,4-difluorophenyl)-2-[(1R)-1,2-dihydroxy-1-methylethyl]-1,3-oxazol-4-yl}-2(1H)-pyridinone] | 3 % of 30 uM amiodarone | Negative
9 | 3.5 nM | CC(C)(O)c1nc(-c2ccc(=O)n(-c3c(F)cccc3F)c2)c(-c2ccc(F)cc2F)o1 [Example 7 (21), 1-(2,6-difluorophenyl)-5-[5-(2,4-difluorophenyl)-2-(1-hydroxy-1-methylethyl)-1,3-oxazol-4-yl]-2(1H)-pyridinone] | 8 % of 30 uM amiodarone | Negative
10 | 3.3 nM | O=c1ccc(-c2oc(C(O)(CO)CO)nc2-c2ccc(F)cc2F)cn1-c1c(F)cccc1F [Example 223, 1-(2,6-difluorophenyl)-5-{4-(2,4-difluorophenyl)-2-[1,2-dihydroxy-1-(hydroxymethyl)ethyl]-1,3-oxazol-5-yl}-2(1H)-pyridinone] | 12 % of 30 uM amiodarone | Negative
11 | 2.8 nM | O=c1ccc(-c2nc(C(O)(CO)CO)oc2-c2ccc(F)cc2F)cn1-c1c(F)cccc1F [Example 7 (39), 1-(2,6-difluorophenyl)-5-{5-(2,4-difluorophenyl)-2-[1,2-dihydroxy-1-(hydroxymethyl)ethyl]-1,3-oxazol-4-yl}-2(1H)-pyridinone] | 11 % of 30 uM amiodarone | Negative
